Assay results reported in PubChem BioAssay AID2060328 (Molecular Pharmacology Branch, DTP, NCI, 2025).

System: MDA-MB-231 multicell spheroids, viability (%T/C)
Experiment: Anticancer human tumor MDA-MB-231 cell line growth inhibition [IpAb];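 further: viability read after seven days of drug exposure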;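 on viability, T/C: 100% = DMSO vehicle control viability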
Conditions: for IC50: curve of first compound; for viability, T/C: stronger effect = lower value
How it was run: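 Spheroids of 60% malignant cells, 25% HUVEC and 15% MSC were exposed to targeted agents combined with ipatasertib or abemaciclib. Doses started at or near clinical Cmax (10 microM when unknown) and fell in half-log steps.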

[1] = second compound 0.1 µM, first compound 0.00949 µM
[2] = second compound 0.1 µM, first compound 0.03 µM
[3] = second compound 0.1 µM, first compound 0.0949 µM
[4] = second compound 0.1 µM, first compound 0.3 µM
[5] = second compound 0.316 µM, first compound 0.00949 µM
[6] = second compound 0.316 µM, first compound 0.03 µM
[7] = second compound 0.316 µM, first compound 0.0949 µM
[8] = second compound 0.316 µM, first compound 0.3 µM
[9] = second compound 1 µM, first compound 0.00949 µM
[10] = second compound 1 µM, first compound 0.03 µM
[11] = second compound 1 µM, first compound 0.0949 µM
[12] = second compound 1 µM, first compound 0.3 µM

SMILES: CC(C)(C)c1cnc(CSc2cnc(NC(=O)C3CCNCC3)s2)o1 + CCN1CCN(Cc2ccc(Nc3ncc(F)c(-c4cc(F)c5nc(C)n(C(C)C)c5c4)n3)nc2)CC1
- IC50 (second compound 0.01 µM): 171 nM
- IC50 (second compound 0.0316 µM): 148 nM
- IC50 (second compound 0.1 µM): 120 nM
- IC50 (second compound 0.316 µM): 33.3 nM
- IC50 (second compound 1 µM): 36.3 nM
- viability, T/C (second compound 0.01 µM, first compound 0.00949 µM): 92.2%
- viability, T/C (second compound 0.01 µM, first compound 0.03 µM): 102%
- viability, T/C (second compound 0.01 µM, first compound 0.0949 µM): 106%
- viability, T/C (second compound 0.01 µM, first compound 0.3 µM): 1.81%
- viability, T/C (second compound 0.01 µM, first compound 0.949 µM): 0.77%
- viability, T/C (second compound 0.01 µM, first compound 3 µM): 0.81%
- viability, T/C (second compound 0.0316 µM, first compound 0.00949 µM): 76.8%
- viability, T/C (second compound 0.0316 µM, first compound 0.03 µM): 82.2%
- viability, T/C (second compound 0.0316 µM, first compound 0.0949 µM): 83.9%
- viability, T/C (second compound 0.0316 µM, first compound 0.3 µM): 1.55%
- viability, T/C (second compound 0.0316 µM, first compound 0.949 µM): 0.68%
- viability, T/C (second compound 0.0316 µM, first compound 3 µM): 0.85%
- viability, T/C [1]: 59.1%
- viability, T/C [2]: 63.1%
- viability, T/C [3]: 66%
- viability, T/C [4]: 1.37%
- viability, T/C (second compound 0.1 µM, first compound 0.949 µM): 0.89%
- viability, T/C (second compound 0.1 µM, first compound 3 µM): 1.1%
- viability, T/C [5]: 47.4%
- viability, T/C [6]: 53.4%
- viability, T/C [7]: 46.1%
- viability, T/C [8]: 1.36%
- viability, T/C (second compound 0.316 µM, first compound 0.949 µM): 0.96%
- viability, T/C (second compound 0.316 µM, first compound 3 µM): 0.95%
- viability, T/C [9]: 52.7%
- viability, T/C [10]: 53.4%
- viability, T/C [11]: 34.9%
- viability, T/C [12]: 1.87%
- viability, T/C (second compound 1 µM, first compound 0.949 µM): 1.16%
- viability, T/C (second compound 1 µM, first compound 3 µM): 1.42%

SMILES: CC(=O)c1c(C)c2cnc(Nc3ccc(N4CCNCC4)cn3)nc2n(C2CCCC2)c1=O + CC(C)NCC(C(=O)N1CCN(c2ncnc3c2C(C)CC3O)CC1)c1ccc(Cl)cc1
- IC50 (second compound 0.1 µM): 35.1 nM
- IC50 (second compound 0.316 µM): 17.3 nM
- IC50 (second compound 1 µM): 7.21 nM
- IC50 (second compound 3.16 µM): 1.28 nM
- IC50 (second compound 10 µM): < 0.949 nM
- viability, T/C (second compound 0.1 µM, first compound 0.000949 µM): 93.3%
- viability, T/C (second compound 0.1 µM, first compound 0.003 µM): 89.6%
- viability, T/C [1]: 67.7%
- viability, T/C [2]: 53%
- viability, T/C [3]: 40.3%
- viability, T/C [4]: 35%
- viability, T/C (second compound 0.316 µM, first compound 0.000949 µM): 82.4%
- viability, T/C (second compound 0.316 µM, first compound 0.003 µM): 73.8%
- viability, T/C [5]: 58.9%
- viability, T/C [6]: 42%
- viability, T/C [7]: 34.4%
- viability, T/C [8]: 32%
- viability, T/C (second compound 1 µM, first compound 0.000949 µM): 69%
- viability, T/C (second compound 1 µM, first compound 0.003 µM): 60.9%
- viability, T/C [9]: 45.9%
- viability, T/C [10]: 36%
- viability, T/C [11]: 26.9%
- viability, T/C [12]: 26.3%
- viability, T/C (second compound 3.16 µM, first compound 0.000949 µM): 50.4%
- viability, T/C (second compound 3.16 µM, first compound 0.003 µM): 47.5%
- viability, T/C (second compound 3.16 µM, first compound 0.00949 µM): 39.5%
- viability, T/C (second compound 3.16 µM, first compound 0.03 µM): 29.1%
- viability, T/C (second compound 3.16 µM, first compound 0.0949 µM): 25.5%
- viability, T/C (second compound 3.16 µM, first compound 0.3 µM): 22.2%
- viability, T/C (second compound 10 µM, first compound 0.000949 µM): 38.5%
- viability, T/C (second compound 10 µM, first compound 0.003 µM): 33.9%
- viability, T/C (second compound 10 µM, first compound 0.00949 µM): 27.2%
- viability, T/C (second compound 10 µM, first compound 0.03 µM): 24.7%
- viability, T/C (second compound 10 µM, first compound 0.0949 µM): 22.4%
- viability, T/C (second compound 10 µM, first compound 0.3 µM): 20.3%

SMILES: CCN1CCN(Cc2ccc(Nc3ncc(F)c(-c4cc(F)c5nc(C)n(C(C)C)c5c4)n3)nc2)CC1
- viability, T/C (compound 0.01 µM): 88.6% [middle of 13 runs]
- viability, T/C (compound 0.0316 µM): 74.8% [middle of 13 runs]
- viability, T/C (compound 0.1 µM): 58.9% [middle of 13 runs]
- viability, T/C (compound 0.316 µM): 46.5% [middle of 13 runs]
- viability, T/C (compound 1 µM): 48.8% [middle of 13 runs]
